Usually melting point stands for the temperature of the solid-liquid transition.

The structures appear in SMILES notation.

In patent US6784137B2, “6-aryl-4-aminopicolinates and their use as herbicides” (Dow AgroSciences LLC, priority 2001, dated 2004) one finds pest or weed control and melting point data, which are given here for 2 compounds.

The first data set deals with Barnyardgrass (Echinochloa crus-galli). The data set can be described thus: Postemergence herbicidal activity, greenhouse spray. The class given is in vivo. Particulars: Echinochloa crus-galli, post-emergence, 336 h, Table 1; rate 250 ppm; visual score after 2 weeks; read-out: Post-emergent % control ECHCG. A digest of the protocol:
(§1)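 Plants grown 7-21 days in a greenhouse (~15 hr photoperiod, about 23-29° C day/22-28° C night) and treated at the first or second true leaf stage. Compounds in acetone:DMSO 97:3 were diluted into an aqueous acetone/isopropyl alcohol/crop oil/Triton X-155 carrier and sprayed to thorough coverage. Controls received carrier alone.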
As for `COC(=O)c1nc(-c2ccc(C(F)(F)F)cc2)cc(N)c1Cl` [Compound 28, Methyl 4-amino-3-chloro-6-[4-(trifluoromethyl)phenyl]pyridine-2-carboxylate], the pest or weed control at 250 ppm worked out at 75%.

Still in this data set, the particulars now being: Echinochloa crus-galli, post-emergence, 336 h, Table 1; rate 500 ppm; visual score after 2 weeks; read-out: Post-emergent % control ECHCG.
As for `Nc1cc(-c2ccc(Cl)c(Cl)c2)nc(C(=O)O)c1Cl` [Compound 150, 4-Amino-3-chloro-6-(3,4-dichlorophenyl)pyridine-2-carboxylic acid], the pest or weed control at 500 ppm is 95%.

For another data set, the system named is Yellow nutsedge (Cyperus esculentus). The description is as above. The class given is in vivo. Particulars: Cyperus, post-emergence, 336 h, Table 1; rate 250 ppm; visual score after 2 weeks; read-out: Post-emergent % control CYPES. A digest of the protocol:
as §1
For the compound `COC(=O)c1nc(-c2ccc(C(F)(F)F)cc2)cc(N)c1Cl` [Compound 28, Methyl 4-amino-3-chloro-6-[4-(trifluoromethyl)phenyl]pyridine-2-carboxylate], the pest or weed control at 250 ppm is 80%.

Still in this data set, the particulars now being: Cyperus, post-emergence, 336 h, Table 1; rate 500 ppm; visual score after 2 weeks; read-out: Post-emergent % control CYPES.
Take `Nc1cc(-c2ccc(Cl)c(Cl)c2)nc(C(=O)O)c1Cl` [Compound 150, 4-Amino-3-chloro-6-(3,4-dichlorophenyl)pyridine-2-carboxylic acid]: the pest or weed control at 500 ppm came to 95%.

The subject of the next data set is Cocklebur (Xanthium strumarium). The description is as above. The class given is in vivo. Particulars: Xanthium strumarium, post-emergence, 336 h; Table 1; rate 250 ppm; visual score after 2 weeks; read-out: Post-emergent % control XANST. The gist of the method: as §1
Regarding `COC(=O)c1nc(-c2ccc(C(F)(F)F)cc2)cc(N)c1Cl` [Compound 28, Methyl 4-amino-3-chloro-6-[4-(trifluoromethyl)phenyl]pyridine-2-carboxylate], the pest or weed control at 250 ppm is 100%.

Staying with this data set, now noted: Xanthium strumarium, post-emergence, 336 h; Table 1; rate 500 ppm; visual score after 2 weeks, 0 no injury, 100 complete kill; read-out: Post-emergent % control XANST.
As to `Nc1cc(-c2ccc(Cl)c(Cl)c2)nc(C(=O)O)c1Cl` [Compound 150, 4-Amino-3-chloro-6-(3,4-dichlorophenyl)pyridine-2-carboxylic acid], the pest or weed control at 500 ppm is 100%.

The test system of the next data set is Lambsquarter (Chenopodium album). The data set is described as above. It is filed as in vivo. Particulars: Chenopodium album, post-emergence, 336 h; Table 1; rate 250 ppm; visual score after 2 weeks; read-out: Post-emergent % control CHEAL. The gist of the method: as §1
Regarding `COC(=O)c1nc(-c2ccc(C(F)(F)F)cc2)cc(N)c1Cl` [Compound 28, Methyl 4-amino-3-chloro-6-[4-(trifluoromethyl)phenyl]pyridine-2-carboxylate], the pest or weed control at 250 ppm turned out to be 100%.

Staying with this data set, now noted: Chenopodium album, post-emergence, 336 h; Table 1; rate 500 ppm; visual score after 2 weeks; read-out: Post-emergent % control CHEAL.
With `Nc1cc(-c2ccc(Cl)c(Cl)c2)nc(C(=O)O)c1Cl` [Compound 150, 4-Amino-3-chloro-6-(3,4-dichlorophenyl)pyridine-2-carboxylic acid], the pest or weed control at 500 ppm was found to be 100%.

The next data set deals with Pigweed (redroot) (Amaranthus retroflexus). The data set is described as follows: Preemergence herbicidal activity, soil spray. It is filed as in vivo. Particulars: Amaranthus retroflexus, pre-emergence, 504 h; Table 5; rate 140 ppm; visual score after 3 weeks; read-out: Pre-emergent % control AMARE. A digest of the protocol: (§2)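 Seeds sown in loam/sand (70:30) soil, pH ~8.1, ~1.5% organic matter; compounds in acetone/DMSO (97:3), diluted in water with 0.1% Tween 155, sprayed onto the soil surface before emergence. Pots kept in greenhouse, ~15 h photoperiod, about 23-29° C day/22-28° C night, top-irrigated.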
With `Nc1cc(-c2ccc(Cl)c(Cl)c2)nc(C(=O)O)c1Cl` [Compound 150, 4-Amino-3-chloro-6-(3,4-dichlorophenyl)pyridine-2-carboxylic acid], the pest or weed control at 140 ppm was found to be 100%.

Still in this data set, the particulars now being: Amaranthus retroflexus, pre-emergence, 504 h; Table 5; rate 560 ppm; visual score after 3 weeks; read-out: Pre-emergent % control AMARE.
On to `COC(=O)c1nc(-c2ccc(C(F)(F)F)cc2)cc(N)c1Cl` [Compound 28, Methyl 4-amino-3-chloro-6-[4-(trifluoromethyl)phenyl]pyridine-2-carboxylate], for which the pest or weed control at 560 ppm worked out at 100%.

The next data set has as its system Giant Foxtail (Setaria faberi). The data set can be described thus: Preemergence herbicidal activity, soil spray. The class given is in vivo. Particulars: Setaria faberi, pre-emergence, 504 h, Table 5; rate 140 ppm; visual score after 3 weeks; read-out: Pre-emergent % control SETFA. A digest of the protocol:
as §2
For `Nc1cc(-c2ccc(Cl)c(Cl)c2)nc(C(=O)O)c1Cl` [Compound 150, 4-Amino-3-chloro-6-(3,4-dichlorophenyl)pyridine-2-carboxylic acid], the pest or weed control at 140 ppm came out at 100%.

The same data set, now with this note: Setaria faberi, pre-emergence, 504 h, Table 5; rate 560 ppm; visual score after 3 weeks; read-out: Pre-emergent % control SETFA.
`COC(=O)c1nc(-c2ccc(C(F)(F)F)cc2)cc(N)c1Cl` [Compound 28, Methyl 4-amino-3-chloro-6-[4-(trifluoromethyl)phenyl]pyridine-2-carboxylate]: the pest or weed control at 560 ppm came out at 100%.

The subject of another data set is Crabgrass(large) (Digitaria sanguinalis). The data set can be described thus: Preemergence herbicidal activity, soil spray. It is filed as in vivo. Particulars: Digitaria sanguinalis, pre-emergence, 504 h; Table 5; rate 140 ppm; visual score after 3 weeks; read-out: Pre-emergent % control DIGSA. A digest of the protocol:
as §2
`Nc1cc(-c2ccc(Cl)c(Cl)c2)nc(C(=O)O)c1Cl` [Compound 150, 4-Amino-3-chloro-6-(3,4-dichlorophenyl)pyridine-2-carboxylic acid]: the pest or weed control at 140 ppm is 90%.

Still in this data set, the particulars now being: Digitaria sanguinalis, pre-emergence, 504 h; Table 5; rate 560 ppm; visual score after 3 weeks; read-out: Pre-emergent % control DIGSA.
Regarding `COC(=O)c1nc(-c2ccc(C(F)(F)F)cc2)cc(N)c1Cl` [Compound 28, Methyl 4-amino-3-chloro-6-[4-(trifluoromethyl)phenyl]pyridine-2-carboxylate], the pest or weed control at 560 ppm is 100%.

In a further data set the test system is Lambsquarter (Chenopodium album). The data set can be described thus: Preemergence herbicidal activity, soil spray. It is filed as in vivo. Particulars: Chenopodium album, pre-emergence, 504 h; Table 5; rate 140 ppm; visual score after 3 weeks; read-out: Pre-emergent % control CHEAL. A digest of the protocol: as §2
In the case of `Nc1cc(-c2ccc(Cl)c(Cl)c2)nc(C(=O)O)c1Cl` [Compound 150, 4-Amino-3-chloro-6-(3,4-dichlorophenyl)pyridine-2-carboxylic acid], the pest or weed control at 140 ppm came out at 100%.

The data set is the same for the next values; noted with them: Chenopodium album, pre-emergence, 504 h; Table 5; rate 560 ppm; visual score after 3 weeks, 100 complete kill or no germination; read-out: Pre-emergent % control CHEAL.
In the case of `COC(=O)c1nc(-c2ccc(C(F)(F)F)cc2)cc(N)c1Cl` [Compound 28, Methyl 4-amino-3-chloro-6-[4-(trifluoromethyl)phenyl]pyridine-2-carboxylate], the pest or weed control at 560 ppm was determined as 100%.

System in the next data set: not given
Assay: not given
Settings: not given
For `Nc1cc(-c2ccc(Cl)c(Cl)c2)nc(C(=O)O)c1Cl` [Compound 150, 4-Amino-3-chloro-6-(3,4-dichlorophenyl)pyridine-2-carboxylic acid], the melting point lay within 185 to 186 °C.

In turn, `COC(=O)c1nc(-c2ccc(C(F)(F)F)cc2)cc(N)c1Cl` [Compound 28, Methyl 4-amino-3-chloro-6-[4-(trifluoromethyl)phenyl]pyridine-2-carboxylate] registered a melting point of 149 °C.
